Assay results from PMC8565742 (PLoS Neglected Tropical Diseases, 2021).

Assays:
[1] = system: untransfected HEK293 cells; assay: Counterscreen, antagonist mode, Ca2+ signal in untransfected HEK cells; type: cell-based; conditions: S3 Table, counterscreen titration
Method: (§1) HEK cells were transfected with cDNA (400μg/ml DNA) encoding Sm.TRPMPZQ using a Maxcyte STX electroporation system and incubated overnight at 37°C. This system is uniquely capabable of large scale transfections providing one batch of cells ready for large scale HTS [30]. Briefly, the HEK cells were resuspended at 10^8/ml in Maxcyte electroporation buffer. Plasmid DNA was added to the cells in buffer to achieve a concentration of 400 μg/ml from a stock of 5mg/ml (in TE buffer). This mixture was loaded into the appropriate cassette, inserted into the machine, and cells electroporated. Cells were then frozen to provide a single supply of transfected cells for all subsequent assays. On the day of the assays, cells were thawed in a 37°C waterbath, and resuspended in DMEM + 10% FBS and counted. The cells were pelleted by centrifugation at 170xg for 5 minutes. The media was aspirated, and the remaining pellet was resuspended in 1x HBSS with 20 mM HEPES and 1% DMSO to achieve 1.33x10^6cells/ml. This cell suspension was then dispensed at 3 μl/well to the 1536 well plates (Greiner Bio One part 789072) at a density of 4,000 cells/well. Measurements of fluorescence intensity (λex = 470 nm, λem = 535 nm) were made using a FLIPR (Molecular Devices FLIPR Tetra). A read of basal fluorescence values was made (5s) prior to addition of compounds or controls (30 nl). In both ‘agonist’ and ‘antagonist mode’, the total assay volume was 6μl (1% DMSO). […] Ligand performance was categorized using an algorithm based on the activity of the entire dataset to define a ‘hit-cutoff’ parameter for both agonist-mode and antagonist-mode screening. Any compound with greater percent activation than this cutoff was assigned as ‘active’ prior to titration and counter-screening. Titration assays were executed using the same reagents, protocols and detection systems, done as 10-point concentration-response curves, performed in triplicate. Counter-screening was performed using untransfected HEK293 cells for comparison with results testing the same compounds effect on cells expressing Sm.TRPMPZQ, with ATP used as the positive control. For each compound, activity was plotted against compound concentration and data were fitted with a sigmoidal function. In order to be considered a hit at this stage a compound must achieve a EC50<5 μM for agonists and IC50 <5 μM for antagonists. All compounds selected for titration were subjected to LC-MS analysis to confirm mass and sample purity. ChemAxon (https://www.chemaxon.com) academic licensing was provided for the use of Instant JChem (ver. 15.10.12.0) to perform compound mining of the libraries utilized in this effort.

Sm.TRPMPZQ [2] = target: T1, Sm.TRPMPZQ (Schistosoma mansoni, UniProt A0A5K4F0X5); assay: cell-based; conditions: S3 Table, titration
Method: as §1, with “This cell suspension was then dispensed at 3 μl/well to the 1536 well plates (Greiner Bio One part 789072) at a density of 4,000 cells/well. Measurements of fluorescence intensity (λex = 470 nm, λem = 535 nm) were made using a FLIPR (Molecular Devices FLIPR Tetra).” left out, “Any compound with greater percent activation than this cutoff was assigned as ‘active’ prior to titration and counter-screening.” left out, “function.” for “function. In order to be considered a hit at this stage a compound must achieve a EC50<5 μM for agonists and IC50 <5 μM for antagonists. All compounds selected for titration were subjected to LC-MS analysis to confirm mass and sample purity. ChemAxon (https://www.chemaxon.com) academic licensing was provided for the use of Instant JChem (ver. 15.10.12.0) to perform compound mining of the libraries utilized in this effort.”

Sm.TRPMPZQ [3] = target: T1, Sm.TRPMPZQ; assay: cell-based; conditions: S3 Table, titration; remark: listed apart in the source
Method: as §1, with “Any compound with greater percent activation than this cutoff was assigned as ‘active’ prior to titration and counter-screening.” left out, “In order to be considered a hit at this stage a compound must achieve a EC50<5 μM for agonists and IC50 <5 μM for antagonists. All compounds selected for titration were subjected to LC-MS analysis to confirm mass and sample purity.” left out

[4] = system: untransfected HEK293 cells; assay: Counterscreen, agonist mode, Ca2+ signal in untransfected HEK cells; type: cell-based; conditions: S3 Table, counterscreen titration; for EC50: unit inferred, read-out: HEK AG Final EC50
Method: as §1

endogenous receptors = conditions: confocal Ca2+ imaging; cited from earlier work
Sm.TRPMPZQ [5] = target: T1, Sm.TRPMPZQ; conditions: human TRPM8 agonists; cited from earlier work

T1 sequence (A0A5K4F0X5 entry or part of it): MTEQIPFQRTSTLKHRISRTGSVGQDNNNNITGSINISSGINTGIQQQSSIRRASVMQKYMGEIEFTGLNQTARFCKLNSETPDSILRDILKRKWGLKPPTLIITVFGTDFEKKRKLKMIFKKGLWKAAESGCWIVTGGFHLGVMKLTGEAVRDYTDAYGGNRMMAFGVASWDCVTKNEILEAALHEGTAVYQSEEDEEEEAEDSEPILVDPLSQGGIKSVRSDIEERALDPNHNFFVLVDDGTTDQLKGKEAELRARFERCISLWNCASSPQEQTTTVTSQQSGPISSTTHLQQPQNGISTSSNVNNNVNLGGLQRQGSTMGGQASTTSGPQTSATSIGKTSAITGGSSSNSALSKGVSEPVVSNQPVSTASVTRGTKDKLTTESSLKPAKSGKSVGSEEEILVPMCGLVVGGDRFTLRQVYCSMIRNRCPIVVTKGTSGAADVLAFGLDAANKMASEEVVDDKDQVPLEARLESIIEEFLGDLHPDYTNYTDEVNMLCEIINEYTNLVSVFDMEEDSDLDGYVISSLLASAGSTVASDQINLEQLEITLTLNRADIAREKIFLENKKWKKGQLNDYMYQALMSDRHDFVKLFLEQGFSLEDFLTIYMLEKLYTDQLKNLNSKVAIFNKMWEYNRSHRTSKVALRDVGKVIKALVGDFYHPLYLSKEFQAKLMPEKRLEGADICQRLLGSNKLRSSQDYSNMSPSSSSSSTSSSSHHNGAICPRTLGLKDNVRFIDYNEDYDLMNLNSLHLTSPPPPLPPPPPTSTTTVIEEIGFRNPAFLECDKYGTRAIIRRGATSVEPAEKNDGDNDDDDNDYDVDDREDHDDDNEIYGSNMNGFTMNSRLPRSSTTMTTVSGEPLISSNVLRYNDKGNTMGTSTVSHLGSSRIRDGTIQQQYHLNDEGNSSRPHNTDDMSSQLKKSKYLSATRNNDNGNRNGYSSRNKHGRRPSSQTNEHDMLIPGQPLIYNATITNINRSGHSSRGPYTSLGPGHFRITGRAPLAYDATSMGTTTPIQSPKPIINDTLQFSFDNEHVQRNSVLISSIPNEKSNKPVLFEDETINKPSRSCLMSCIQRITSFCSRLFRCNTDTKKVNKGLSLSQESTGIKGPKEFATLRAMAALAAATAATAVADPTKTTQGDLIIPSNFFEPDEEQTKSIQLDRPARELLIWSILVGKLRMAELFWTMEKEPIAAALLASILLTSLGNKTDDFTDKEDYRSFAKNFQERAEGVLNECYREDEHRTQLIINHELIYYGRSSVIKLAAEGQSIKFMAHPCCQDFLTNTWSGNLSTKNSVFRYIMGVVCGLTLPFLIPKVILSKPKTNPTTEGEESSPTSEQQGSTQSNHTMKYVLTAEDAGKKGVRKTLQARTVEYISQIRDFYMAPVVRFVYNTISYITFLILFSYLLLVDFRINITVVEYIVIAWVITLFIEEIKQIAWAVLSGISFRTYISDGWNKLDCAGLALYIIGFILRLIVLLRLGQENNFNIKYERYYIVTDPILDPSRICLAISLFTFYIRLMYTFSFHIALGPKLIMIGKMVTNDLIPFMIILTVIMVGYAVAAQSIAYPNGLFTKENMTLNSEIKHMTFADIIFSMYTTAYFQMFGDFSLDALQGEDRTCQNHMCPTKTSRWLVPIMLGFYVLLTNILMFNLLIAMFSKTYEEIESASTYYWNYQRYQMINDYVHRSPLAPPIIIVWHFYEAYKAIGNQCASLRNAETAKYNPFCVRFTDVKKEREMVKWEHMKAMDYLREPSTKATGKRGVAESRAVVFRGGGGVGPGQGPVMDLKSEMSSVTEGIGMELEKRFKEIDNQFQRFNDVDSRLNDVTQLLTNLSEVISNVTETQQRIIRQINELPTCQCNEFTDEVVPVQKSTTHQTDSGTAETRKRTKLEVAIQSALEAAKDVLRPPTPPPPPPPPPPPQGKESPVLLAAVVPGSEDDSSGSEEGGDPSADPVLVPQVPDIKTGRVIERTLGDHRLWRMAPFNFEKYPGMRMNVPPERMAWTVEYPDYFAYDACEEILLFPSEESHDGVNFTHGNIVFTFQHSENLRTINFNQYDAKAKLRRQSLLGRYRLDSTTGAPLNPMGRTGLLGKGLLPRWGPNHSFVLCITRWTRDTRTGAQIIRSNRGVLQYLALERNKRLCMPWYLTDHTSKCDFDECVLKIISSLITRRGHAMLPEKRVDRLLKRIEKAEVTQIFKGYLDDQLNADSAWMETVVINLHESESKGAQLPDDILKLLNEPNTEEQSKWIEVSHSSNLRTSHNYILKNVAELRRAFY

Cc1cc(C)n(-c2ccc(-n3cccc3/C=C(/C#N)S(=O)(=O)c3ccccc3)cc2)n1 [SR-02000000290-3]
HEK ANT Averaged Max % Response [1]: 37.5091%
Sm.TRPMPZQ ANT Averaged Max % Response (Sm.TRPMPZQ [2]): 71.9269%
Sm.TRPMPZQ AG Averaged Max % Response (Sm.TRPMPZQ [3]): 6.499%
HEK AG Averaged Max % Response [4]: 13.2678%
EC50 [4]: > 12.4 µM

Nc1ncnc2c1ncn2[C@@H]1O[C@H](COP(=O)(O)OP(=O)(O)OP(=O)(O)O)[C@@H](O)[C@H]1O [ATP]
ΔF/F, amplitude of Ca2+ transient (endogenous receptors): 4.5±1.5

CC1CCC(C(C)C)C(O)C1 (stereo not shown) [menthol]
activation of Sm.TRPMPZQ (Sm.TRPMPZQ [5]): not activated

FC(F)(F)c1ccc2c(c1)nc(SCc1ccccc1)n2CCc1ccccc1 [SR-07000003001-2]
HEK ANT Averaged Max % Response [1]: 21.2984%
Sm.TRPMPZQ ANT Averaged Max % Response (Sm.TRPMPZQ [2]): 61.2456%
Sm.TRPMPZQ AG Averaged Max % Response (Sm.TRPMPZQ [3]): 3.104%
HEK AG Averaged Max % Response [4]: 8.753%
EC50 [4]: > 12.4 µM

O=C1NC(c2cccc([N+](=O)[O-])c2)=CCN1c1ccccc1O [icilin]
activation of Sm.TRPMPZQ (Sm.TRPMPZQ [5]): not activated
